Assay results: patent US20240408052A1, “COMPOSITION CONTAINING SESAMIN AND ERGOTHIONEINE OR SALT THEREOF” (SUNTORY HOLDINGS LIMITED, priority 2021, published 2024)

System: p16-INK4A (p16)
Assay: p16 expression in H2O2-treated TIG-3 cells (cellular senescence marker, real-time PCR)
Format: cell-based, human
Experimental: TIG-3 cells (human lung fibroblasts) were used to measure the expression level of p16-INK4A (p16) in the cells. Eagle's minimum essential medium supplemented with 10% fetal bovine serum was used in each of Examples 1 and 2, Reference Example 1, and Comparative Examples 1 to 4. A H2O2 (200 μM)-supplemented medium used for H2O2 treatment was prepared by adding H2O2 to the medium described above. The H2O2 (200 μM)-supplemented medium is free of sesamin-class compounds and ergothioneine.
In Examples 1 and 2, in order to investigate the action on cellular senescence, the cells were cultured in a medium containing sesamin-class compounds and ergothioneine and were then treated with the H2O2-supplemented medium. […]
Specifically, TIG-3 cells at 4.0×10^4 cells/well were seeded onto 6-well plates and cultured at 37° C. with CO2 (5%) for 24 hours in a medium supplemented with a sesamin-episesamin mixture (SE) and ergothioneine at the respective concentrations shown in the following Table 1. […] The resulting pellets were dissolved in 20 μL DNase RNase free water (Invitrogen) and measured by NanoDrop. […] A master mix (15 μL) (Takara, TB Green® Premix Ex Taq™ II (Tli RNaseH Plus)) was mixed with the cDNA sample (5 μL), and p16 was measured with a Real-Time PCR system (Applied Biosystems, StepOnePlus-01). An average p16 expression level (n=6) was determined. […]

C[N+](C)(C)[C@@H](Cc1c[nH]c(=S)[nH]1)C(=O)[O-] [ergothioneine, L-ergothioneine]
p16 expression level compared to the H2O2-treated group (Comparative Example 1) (FIG. 1, ergothioneine 0.1 μM, 200 μM H2O2 two hours, then six days culture, n=6): no significant change | p16 expression compared to the H2O2-treated group (Comparative Example 1) (FIG. 2, ergothioneine 10 μM, 200 μM H2O2, p<0.05): significantly suppressed
